Experimental data: ChEMBL document CHEMBL5465560, “Selectivity Literature for EUbOPEN Chemogenomic Library” (2024)

How the values were obtained:
[1] = target: T1, Ephrin type-A receptor 1 (Homo sapiens) (UniProt P21709); test: Selectivity interaction (KinomeScan (DiscoverX)) EUB0000666a EPHA1; conditions: at 10 µM
T1 sequence (whole entry): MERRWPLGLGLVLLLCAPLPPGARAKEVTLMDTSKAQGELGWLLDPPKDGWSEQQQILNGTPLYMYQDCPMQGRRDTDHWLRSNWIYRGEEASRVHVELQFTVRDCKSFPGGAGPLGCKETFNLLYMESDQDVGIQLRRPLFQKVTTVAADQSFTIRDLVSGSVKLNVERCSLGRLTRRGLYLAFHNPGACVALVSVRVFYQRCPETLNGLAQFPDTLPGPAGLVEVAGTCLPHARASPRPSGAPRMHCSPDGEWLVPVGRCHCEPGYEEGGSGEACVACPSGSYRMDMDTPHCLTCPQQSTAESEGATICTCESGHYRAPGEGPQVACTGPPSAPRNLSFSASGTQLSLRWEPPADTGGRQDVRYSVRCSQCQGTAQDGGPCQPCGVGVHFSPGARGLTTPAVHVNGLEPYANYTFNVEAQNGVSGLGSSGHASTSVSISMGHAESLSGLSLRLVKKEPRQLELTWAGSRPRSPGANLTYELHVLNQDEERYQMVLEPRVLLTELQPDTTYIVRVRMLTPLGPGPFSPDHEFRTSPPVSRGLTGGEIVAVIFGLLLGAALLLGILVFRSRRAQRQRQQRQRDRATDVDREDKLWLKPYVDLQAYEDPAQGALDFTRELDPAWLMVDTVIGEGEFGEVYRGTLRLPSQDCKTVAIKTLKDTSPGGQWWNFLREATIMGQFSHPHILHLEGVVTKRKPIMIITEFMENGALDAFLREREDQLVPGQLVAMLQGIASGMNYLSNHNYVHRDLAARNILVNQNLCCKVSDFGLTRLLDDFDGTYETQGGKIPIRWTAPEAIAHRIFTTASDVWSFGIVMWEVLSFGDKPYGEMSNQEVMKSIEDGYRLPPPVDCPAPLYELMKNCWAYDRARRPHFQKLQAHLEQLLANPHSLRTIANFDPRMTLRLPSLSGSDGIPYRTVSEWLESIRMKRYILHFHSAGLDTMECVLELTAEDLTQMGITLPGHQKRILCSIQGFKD

[2] = target: T2, Vascular endothelial growth factor receptor 2 (Homo sapiens, UniProt P35968); test: Selectivity interaction (Kinase panel (Eurofins)) EUB0001564a KDR; conditions: at 1 µM
[3] = target: T2, Vascular endothelial growth factor receptor 2; test: Selectivity interaction (Upstate Kinase Profiler service (Millipore)) EUB0000056c KDR; conditions: at 1 µM
[4] = target: Calcium/calmodulin-dependent protein kinase type 1 (Homo sapiens) (UniProt Q14012); test: Selectivity interaction (ActivX KiNativ screen (kinase selectivity in THP-1 cell lysates)) EUB0000639a CAMK1; format: subcellular; conditions: lysate
[5] = target: Serine/threonine-protein kinase N1 (Homo sapiens, UniProt Q16512); test: Selectivity interaction (ActivX KiNativ screen (kinase selectivity in THP-1 cell lysates)) EUB0000639a PKN1; format: subcellular; conditions: lysate
[6] = target: T3, Tyrosine-protein kinase receptor TYRO3 (Homo sapiens) (UniProt Q06418); test: Selectivity interaction (Kinase panel (Invitrogen)) EUB0000639a TYRO3; conditions: at 200 nM
T3 sequence (whole entry): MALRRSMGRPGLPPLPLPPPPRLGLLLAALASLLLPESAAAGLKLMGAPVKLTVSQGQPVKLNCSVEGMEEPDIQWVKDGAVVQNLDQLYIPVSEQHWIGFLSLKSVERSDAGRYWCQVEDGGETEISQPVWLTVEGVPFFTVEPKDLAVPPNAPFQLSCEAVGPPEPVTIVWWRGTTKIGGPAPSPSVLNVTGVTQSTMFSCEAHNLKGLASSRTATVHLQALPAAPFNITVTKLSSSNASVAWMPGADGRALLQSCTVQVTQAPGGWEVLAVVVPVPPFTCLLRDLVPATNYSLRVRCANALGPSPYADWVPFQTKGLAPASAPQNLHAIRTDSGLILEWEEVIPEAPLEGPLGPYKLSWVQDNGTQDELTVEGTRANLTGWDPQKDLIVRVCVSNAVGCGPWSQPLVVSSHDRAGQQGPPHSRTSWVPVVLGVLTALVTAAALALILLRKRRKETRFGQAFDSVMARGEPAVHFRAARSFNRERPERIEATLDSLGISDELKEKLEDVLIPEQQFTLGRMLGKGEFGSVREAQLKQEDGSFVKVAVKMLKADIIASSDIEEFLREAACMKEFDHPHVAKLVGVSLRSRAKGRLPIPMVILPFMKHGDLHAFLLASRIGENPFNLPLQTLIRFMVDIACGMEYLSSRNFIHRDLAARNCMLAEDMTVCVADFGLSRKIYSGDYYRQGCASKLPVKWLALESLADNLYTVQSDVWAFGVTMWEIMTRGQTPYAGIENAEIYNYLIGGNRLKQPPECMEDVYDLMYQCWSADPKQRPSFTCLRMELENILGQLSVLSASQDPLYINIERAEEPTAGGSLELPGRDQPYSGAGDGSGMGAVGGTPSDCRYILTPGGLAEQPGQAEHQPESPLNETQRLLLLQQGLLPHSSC

[7] = target: Ribosomal protein S6 kinase alpha-4 (Homo sapiens) (UniProt O75676); test: Selectivity interaction (KinomeScan (DiscoverX)) EUB0000695a RPS6KA4; conditions: at 100 nM
[8] = target: Calcium/calmodulin-dependent protein kinase type II subunit beta (Homo sapiens) (UniProt Q13554); test: Selectivity interaction (Kinase panel (DSF assay)) EUB0001559a CAMK2B
[9] = target: Serine/threonine-protein kinase RIO2 (Homo sapiens) (UniProt Q9BVS4); test: Selectivity interaction (Ambit KINOMEscan and KiNATiv profiling in Jurkat cells) EUB0000090b RIOK2; format: cell-based; conditions: at 1 µM
[10] = target: Serine/threonine-protein kinase NIM1 (Homo sapiens, UniProt Q8IY84); test: Selectivity interaction (KinomeScan (DiscoverX)) EUB0001079a NIM1K; conditions: at 1 µM
[11] = target: Casein kinase II subunit alpha' (Homo sapiens) (UniProt P19784); test: Selectivity interaction (KinomeScan (DiscoverX)) EUB0001619a CSNK2A2; conditions: at 1 µM
[12] = target: MAP/microtubule affinity-regulating kinase 3 (Homo sapiens) (UniProt P27448); test: Selectivity interaction (KinomeScan (DiscoverX)) EUB0001619a MARK3; conditions: at 1 µM
Chain of MAP/microtubule affinity-regulating kinase 3 (Homo sapiens) (P27448 whole entry, looked up): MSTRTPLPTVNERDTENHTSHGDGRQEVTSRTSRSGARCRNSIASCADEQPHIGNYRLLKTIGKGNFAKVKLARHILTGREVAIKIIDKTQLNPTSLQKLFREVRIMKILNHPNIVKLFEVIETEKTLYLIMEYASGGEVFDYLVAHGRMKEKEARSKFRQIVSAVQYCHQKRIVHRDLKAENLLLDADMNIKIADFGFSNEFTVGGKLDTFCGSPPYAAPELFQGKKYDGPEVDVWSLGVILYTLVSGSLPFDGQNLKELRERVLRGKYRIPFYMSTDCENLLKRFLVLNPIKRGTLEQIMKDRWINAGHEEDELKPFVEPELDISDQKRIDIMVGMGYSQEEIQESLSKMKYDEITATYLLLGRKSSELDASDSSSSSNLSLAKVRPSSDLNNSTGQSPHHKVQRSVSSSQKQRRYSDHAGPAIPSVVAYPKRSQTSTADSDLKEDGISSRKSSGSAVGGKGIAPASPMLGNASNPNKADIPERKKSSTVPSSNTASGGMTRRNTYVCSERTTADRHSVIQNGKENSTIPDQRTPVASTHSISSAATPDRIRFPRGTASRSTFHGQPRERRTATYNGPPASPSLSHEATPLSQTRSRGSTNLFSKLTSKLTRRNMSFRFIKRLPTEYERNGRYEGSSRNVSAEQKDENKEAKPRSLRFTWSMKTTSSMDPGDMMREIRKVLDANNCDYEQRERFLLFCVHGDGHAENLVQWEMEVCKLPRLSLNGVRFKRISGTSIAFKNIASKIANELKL

Chain of Serine/threonine-protein kinase N1 (Q16512 2-942 limits assumed): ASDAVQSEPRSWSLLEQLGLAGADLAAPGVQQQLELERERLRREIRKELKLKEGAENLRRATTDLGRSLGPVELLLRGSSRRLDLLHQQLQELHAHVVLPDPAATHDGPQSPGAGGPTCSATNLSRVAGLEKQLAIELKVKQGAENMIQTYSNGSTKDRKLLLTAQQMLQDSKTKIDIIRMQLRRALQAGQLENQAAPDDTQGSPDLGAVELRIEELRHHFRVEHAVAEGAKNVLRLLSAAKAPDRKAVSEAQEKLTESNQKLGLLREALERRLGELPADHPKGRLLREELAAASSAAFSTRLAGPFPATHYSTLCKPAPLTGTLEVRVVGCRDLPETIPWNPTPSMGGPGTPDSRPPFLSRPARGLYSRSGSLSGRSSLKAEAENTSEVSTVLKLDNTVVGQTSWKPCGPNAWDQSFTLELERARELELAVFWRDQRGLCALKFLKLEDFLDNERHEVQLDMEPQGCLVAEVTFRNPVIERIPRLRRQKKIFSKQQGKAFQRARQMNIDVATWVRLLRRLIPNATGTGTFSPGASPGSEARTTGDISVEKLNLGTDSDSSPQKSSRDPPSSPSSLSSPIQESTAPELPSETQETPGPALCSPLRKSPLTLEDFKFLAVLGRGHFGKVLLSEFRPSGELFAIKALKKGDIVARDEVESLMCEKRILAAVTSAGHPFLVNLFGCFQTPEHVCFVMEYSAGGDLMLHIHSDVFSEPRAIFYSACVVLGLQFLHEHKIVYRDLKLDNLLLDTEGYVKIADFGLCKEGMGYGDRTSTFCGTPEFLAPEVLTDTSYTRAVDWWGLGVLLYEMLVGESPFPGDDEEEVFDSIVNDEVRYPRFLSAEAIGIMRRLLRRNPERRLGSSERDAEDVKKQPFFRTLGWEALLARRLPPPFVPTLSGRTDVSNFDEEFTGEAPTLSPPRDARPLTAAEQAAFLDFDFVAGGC
Chain of Calcium/calmodulin-dependent protein kinase type 1 (Homo sapiens) (Q14012 whole entry, looked up): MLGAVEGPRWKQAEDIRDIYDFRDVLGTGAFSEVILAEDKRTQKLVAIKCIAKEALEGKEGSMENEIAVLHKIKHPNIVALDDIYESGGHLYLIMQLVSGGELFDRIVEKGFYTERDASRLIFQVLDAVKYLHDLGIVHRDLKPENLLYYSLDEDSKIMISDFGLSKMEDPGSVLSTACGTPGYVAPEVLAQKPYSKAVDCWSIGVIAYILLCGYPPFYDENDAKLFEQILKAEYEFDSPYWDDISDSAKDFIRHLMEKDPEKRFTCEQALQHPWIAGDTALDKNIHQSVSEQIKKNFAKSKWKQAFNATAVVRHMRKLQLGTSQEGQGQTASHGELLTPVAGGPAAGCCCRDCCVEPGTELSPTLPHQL
T2 sequence (P35968 whole entry): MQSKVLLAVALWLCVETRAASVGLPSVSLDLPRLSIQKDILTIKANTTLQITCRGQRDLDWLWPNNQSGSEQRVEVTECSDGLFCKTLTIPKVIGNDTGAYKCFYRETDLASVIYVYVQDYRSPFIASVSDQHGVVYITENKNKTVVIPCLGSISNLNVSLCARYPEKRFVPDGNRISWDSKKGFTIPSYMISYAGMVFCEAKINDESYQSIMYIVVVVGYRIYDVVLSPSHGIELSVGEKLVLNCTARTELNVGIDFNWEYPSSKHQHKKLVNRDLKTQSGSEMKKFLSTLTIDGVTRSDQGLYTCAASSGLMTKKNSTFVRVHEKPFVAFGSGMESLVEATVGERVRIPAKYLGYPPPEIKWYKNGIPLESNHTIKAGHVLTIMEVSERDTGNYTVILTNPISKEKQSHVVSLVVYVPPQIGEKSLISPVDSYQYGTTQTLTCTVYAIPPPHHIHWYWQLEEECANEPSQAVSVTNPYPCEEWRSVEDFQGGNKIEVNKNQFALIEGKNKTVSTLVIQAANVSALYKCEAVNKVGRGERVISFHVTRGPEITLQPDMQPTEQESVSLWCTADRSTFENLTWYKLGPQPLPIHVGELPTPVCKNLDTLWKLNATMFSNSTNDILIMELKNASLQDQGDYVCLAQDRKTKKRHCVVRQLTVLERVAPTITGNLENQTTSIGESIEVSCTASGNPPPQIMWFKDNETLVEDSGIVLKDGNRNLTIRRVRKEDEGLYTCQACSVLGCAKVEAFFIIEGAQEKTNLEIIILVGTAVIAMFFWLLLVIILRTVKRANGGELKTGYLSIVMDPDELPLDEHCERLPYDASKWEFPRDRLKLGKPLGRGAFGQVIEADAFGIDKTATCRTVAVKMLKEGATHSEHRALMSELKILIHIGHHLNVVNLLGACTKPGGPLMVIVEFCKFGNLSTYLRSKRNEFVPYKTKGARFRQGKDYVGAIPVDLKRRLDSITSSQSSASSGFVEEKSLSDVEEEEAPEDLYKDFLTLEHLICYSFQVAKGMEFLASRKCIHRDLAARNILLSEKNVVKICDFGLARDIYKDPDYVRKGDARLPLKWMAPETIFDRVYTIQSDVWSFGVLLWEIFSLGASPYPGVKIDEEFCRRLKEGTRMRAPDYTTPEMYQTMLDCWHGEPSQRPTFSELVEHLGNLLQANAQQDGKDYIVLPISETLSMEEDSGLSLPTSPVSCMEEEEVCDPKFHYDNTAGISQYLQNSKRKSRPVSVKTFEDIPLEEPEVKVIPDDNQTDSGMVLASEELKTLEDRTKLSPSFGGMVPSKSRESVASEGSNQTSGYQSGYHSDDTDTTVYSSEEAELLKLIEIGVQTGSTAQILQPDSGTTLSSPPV
Chain of Casein kinase II subunit alpha' (Homo sapiens) (P19784 whole entry, looked up): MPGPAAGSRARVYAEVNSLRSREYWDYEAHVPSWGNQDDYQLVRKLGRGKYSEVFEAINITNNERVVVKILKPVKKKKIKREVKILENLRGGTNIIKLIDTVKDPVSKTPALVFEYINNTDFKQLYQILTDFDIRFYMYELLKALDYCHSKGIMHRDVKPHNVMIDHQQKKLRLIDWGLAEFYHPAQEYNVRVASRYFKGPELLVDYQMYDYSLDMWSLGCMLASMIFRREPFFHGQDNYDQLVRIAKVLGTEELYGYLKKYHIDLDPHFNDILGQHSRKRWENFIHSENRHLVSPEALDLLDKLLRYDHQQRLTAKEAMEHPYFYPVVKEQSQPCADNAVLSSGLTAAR
Chain of Serine/threonine-protein kinase RIO2 (Homo sapiens) (Q9BVS4 whole entry, looked up): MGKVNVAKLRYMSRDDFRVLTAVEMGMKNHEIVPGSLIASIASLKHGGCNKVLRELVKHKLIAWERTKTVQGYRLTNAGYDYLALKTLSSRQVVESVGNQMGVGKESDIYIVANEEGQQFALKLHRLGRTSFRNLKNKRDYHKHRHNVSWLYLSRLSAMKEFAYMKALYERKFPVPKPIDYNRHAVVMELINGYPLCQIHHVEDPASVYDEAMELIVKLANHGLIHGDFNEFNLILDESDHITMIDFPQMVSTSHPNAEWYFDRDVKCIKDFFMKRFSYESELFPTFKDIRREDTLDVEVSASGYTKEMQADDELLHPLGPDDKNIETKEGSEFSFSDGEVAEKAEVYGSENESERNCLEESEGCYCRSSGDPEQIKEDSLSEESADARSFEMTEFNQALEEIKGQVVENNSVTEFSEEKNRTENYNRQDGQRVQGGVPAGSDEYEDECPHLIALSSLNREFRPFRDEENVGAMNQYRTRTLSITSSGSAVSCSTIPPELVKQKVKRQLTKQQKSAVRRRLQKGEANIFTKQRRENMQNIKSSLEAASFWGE
Chain of Calcium/calmodulin-dependent protein kinase type II subunit beta (Homo sapiens) (Q13554 whole entry): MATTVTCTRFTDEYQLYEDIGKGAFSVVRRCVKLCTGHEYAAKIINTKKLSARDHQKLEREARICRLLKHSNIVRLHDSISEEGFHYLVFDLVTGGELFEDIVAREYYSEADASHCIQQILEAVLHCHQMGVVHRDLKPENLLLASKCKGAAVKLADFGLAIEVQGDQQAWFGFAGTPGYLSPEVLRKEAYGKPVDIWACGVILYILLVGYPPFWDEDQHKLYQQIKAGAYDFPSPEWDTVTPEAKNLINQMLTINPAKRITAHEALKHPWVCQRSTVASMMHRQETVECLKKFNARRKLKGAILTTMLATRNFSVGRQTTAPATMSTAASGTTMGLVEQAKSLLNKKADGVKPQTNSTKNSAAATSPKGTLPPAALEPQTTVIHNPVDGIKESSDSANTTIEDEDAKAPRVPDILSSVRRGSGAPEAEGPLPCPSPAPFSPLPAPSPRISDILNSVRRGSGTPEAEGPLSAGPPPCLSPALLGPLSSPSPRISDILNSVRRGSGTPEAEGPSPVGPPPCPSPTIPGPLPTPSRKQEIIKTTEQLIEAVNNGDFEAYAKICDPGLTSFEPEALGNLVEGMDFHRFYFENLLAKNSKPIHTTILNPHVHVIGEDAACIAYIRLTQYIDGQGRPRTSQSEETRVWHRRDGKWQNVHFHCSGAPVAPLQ

O=C(NOC[C@H](O)CO)c1ccc(F)c(F)c1Nc1ccc(I)cc1F
% of control [1]: 91%

CC[C@@H](Nc1c(C#N)c(-c2ccc(-c3cccc(C)c3F)cc2)nc2cnccc12)C(=O)O [BAY-091]
% of inhibition [2]: 50.1%

Cc1ccc(-c2ccc3c(ccc4sc5c(c43)NC[C@@H](C)NC5=O)n2)cn1
% of inhibition [3]: 21%

CC[C@@H]1[C@H](F)C(=O)N[C@@H]1COc1nccc2cc(C(N)=O)c(OC)cc12 [ZIMLOVISERTIB]
% of inhibition ([4]; at 0.01 µM): -2.6%
% of inhibition ([4]; at 0.04 µM): 9.8%
% of inhibition ([4]; at 0.2 µM): 1.9%
% of inhibition ([4]; at 1 µM): -7.1%
% of inhibition ([4]; at 5 µM): -4.3%
% of inhibition ([5]; at 0.01 µM): 8.7%
% of inhibition ([5]; at 0.04 µM): 3.4%
% of inhibition ([5]; at 0.2 µM): 5%
% of inhibition ([5]; at 1 µM): 5.9%
% of inhibition ([5]; at 5 µM): 34.9%
% of inhibition [6]: 5.87%

Cc1cc(F)c(C(=O)Nc2cccc(-c3nncn3C(C)C)n2)cc1-n1cnc(C2CC2)c1
% of control [7]: 69%

CN(C(=O)c1cnn2cccnc12)c1cc2c(cc1N1CCOCC1)C(=O)N(C[C@@H](F)C(C)(C)O)C2
dTM [8]: 0 K

CN(C)C/C=C/C(=O)Nc1ccc(C(=O)N2CCCC(Nc3ncc(Cl)c(-c4c[nH]c5ccccc45)n3)C2)cc1 (stereo not given)
% of control [9]: 10%

Nc1cnc(N2CCc3cc(S(=O)(=O)Nc4c(F)cc(Cl)cc4F)cc(N4CCCC4=O)c32)nc1 [TP-020n]
% of control [10]: 100%

N#Cc1cccc(-c2c[nH]c3ncnc(N4CCOCC4)c23)c1
% of control [11]: 45%
% of control [12]: 100%
